Our source for the CC50 and IC50 values is US20260355184A1, “SMALL MOLECULE DEGRADERS OF HIV-1 TAT PROTEIN” (priority 2022, published 2026).

By CC50 is commonly meant the concentration at which the toxic effect on the cells reaches its halfway point. The term IC50 denotes the point on the concentration scale where inhibition reaches its midpoint.

Test system in one data set: not listed separately
The data set is described as follows: Cytotoxicity assay, Cell-Titer-Glo, HeLa-CD4-LTR-LacZ. Conditions: human, hela-cd4-ltr-lacz cells, Infectivity CC50, HeLa-CD4-LTR-LacZ; analogs of TT-44856 (Table 3). As for the experimental part: (§1) Next, the activity of these leads against HIV infection was evaluated using the reporter cell line HeLa-CD4-LTR-LacZ, which stably expresses the β-galactosidase (β-Gal) gene under the control of the HIV 5′ LTR. The HIV NL4.3 strain was used for these studies and β-Gal activity was measured 72 hrs post infection (FIG. 3A). Cytotoxicity assays using Cell-Titer-Glo were performed in parallel to assess cell viability (FIG. 3A). […] Their anti-HIV activity was further assessed in acute replication of Jurkat T cells with the NL4.3 strain (FIG. 3A). […] These OM10.1 cells contain a single integrated wild-type provirus, while ACH-2 cells contain a single integrated provirus with a TAR mutation C37T, defective Tat-TAR feedback loop (FIG. 3B).
`COc1ccc(C(C(=O)NCCCn2ccnc2)c2ccccc2)cc1` (centres unmarked) [3-48]: the CC50 is more than 100 µM.

Turning to `O=C(NCCCn1ccnc1)c1ccc2ccccc2c1` [3-34], the CC50 was more than 100 µM.

Compound `CC(C)(C(=O)NCCCn1ccnc1)c1cccc(C(F)(F)F)c1` [compound 46606] showed a half-maximal cytotoxic concentration (CC50) of more than 100 µM.

Still in this data set, the particulars now being: human, hela-cd4-ltr-lacz cells, Infectivity CC50, HeLa-CD4-LTR-LacZ; analogs of TT-44863 (Table 2).
In turn, `COc1ccc(C#N)cc1NC(=O)Cn1cc(C(F)(F)F)cc(Cl)c1=O` [compound 46828] had a CC50 of 50 to 100 µM.

On to `COc1ccc(C(F)(F)F)cc1CNC(=O)Cn1cc(C)cc(Cl)c1=O` [compound 46957], for which the CC50 is more than 50 µM.

The compound `CC(C)(C)OC(=O)COCCOCCOc1ccc(C(F)(F)F)cc1NC(=O)Cn1cc(C(F)(F)F)cc(Cl)c1=O` [compound 47] came in with a CC50 of more than 100 µM.

For a further data set, the system named is HIV NL4.3 strain. The data set is described as follows: HIV infectivity assay, reporter cell line HeLa-CD4-LTR-LacZ, β-Gal activity (Tat protein inhibition). Format: cell-based, HIV-1 (NL4.3). The conditions noted are these: Human immunodeficiency virus 1, read-out: Infectivity IC50, HeLa-CD4-LTR-LacZ; analogs of TT-44856 (Table 3). As for the experimental part:
as §1
In the case of `COc1ccc(C(C(=O)NCCCn2ccnc2)c2ccccc2)cc1` (centres unmarked) [3-48], the IC50 lay in the range of 20 to 50 µM.

Turning to `Cc1ccc(CC(=O)NCCCn2ccnc2)cc1` [Z100612606], the IC50 was more than 100 µM.

As for `O=C(Cc1ccc(F)cc1)NCCCn1ccnc1` [Z31795779], the IC50 is more than 100 µM.

Consider `CC(CNC(=O)CCn1cnc2ccccc21)(c1ccccc1)c1ccccc1` [Z119886832], for which the half-maximal inhibitory concentration (IC50) is more than 100 µM.

As to `CC(C)(C(=O)NCCCn1ccnc1)c1cccc(C(F)(F)F)c1` [Z1053536312], the IC50 is more than 100 µM.

`O=C(NCCCn1ccnc1)c1ccc(-c2ccccc2)cc1` [Z31795699]: the IC50 is more than 100 µM.

`O=C(Cc1cccc(C(F)(F)F)c1)NCCCn1ccnc1` [Z30217436]: the IC50 is more than 100 µM.

As to `CNc1ccccc1CC(=O)NCCCn1ccnc1` [Z31794405], the IC50 is more than 100 µM.

As for `O=C(NCCCn1ccnc1)c1ccc(Oc2ccccc2)cc1` [Z56813845], the IC50 was more than 100 µM.

For the compound `O=C(Cc1c(Cl)cccc1Cl)NCCCn1ccnc1` [Z30217435], the IC50 is more than 100 µM.

Consider `O=C(Cc1ccc2ccccc2c1)NCCCn1ccnc1` [Z31795124], for which the IC50 is more than 100 µM.

As for `CC(CNC(=O)Cc1c(F)cccc1Cl)Cn1ccnc1` (centres unmarked) [Z1250741002], the IC50 was more than 100 µM.

Regarding `COc1cccc(CC(=O)NCCCn2ccnc2)c1` [Z31796092], the IC50 is more than 100 µM.

`O=C(Cc1ccccc1Cl)NCCCn1ccnc1` [Z31796195]: the IC50 is more than 100 µM.

With `Cc1ccccc1CC(=O)NCCCn1ccnc1` [Z51979592], the concentration for half-maximal inhibition (IC50) is more than 100 µM.

For `CCC(=O)NC(C(=O)NCCCn1ccnc1)c1ccccc1` (centres unmarked) [Z1207330250], the IC50 is more than 100 µM.

As for `O=C(Cc1ccc(C(F)(F)F)cc1)NCCCn1ccnc1` [Z236749082], the IC50 was more than 100 µM.

Turning to `O=C(Cc1cccc2ccccc12)NCCCn1ccnc1` [Z31795406], the IC50 is more than 100 µM.

In the case of `Cc1ccc(CCC(=O)NCCCn2ccnc2)cc1` [Z196426172], the IC50 is more than 100 µM.

For the compound `O=C(Cc1cccc(F)c1)NCCCn1ccnc1` [Z31796183], the IC50 was more than 100 µM.

Take `CC(C(=O)NCCCn1ccnc1)c1c(Cl)cccc1Cl` (centres unmarked) [Z1004969394]: the half-inhibitory concentration (IC50) was more than 100 µM.

On to `O=C(CC(c1ccccc1)c1ccccc1)NCCCn1ccnc1` [Z30217483], for which the IC50 was more than 100 µM.

For `O=C(COC(c1ccccc1)c1ccccc1)NCCCn1ccnc1` [Z51979572], the IC50 was more than 100 µM.

Consider `O=C(Cc1ccccc1F)NCCCn1ccnc1` [Z31795827], for which the IC50 was more than 100 µM.

Consider `O=C(Cc1ccc2c(c1)CCC2)NCCCn1ccnc1` [Z51979499], for which the IC50 was more than 100 µM.

For `O=C(NCCCn1ccnc1)c1ccc2ccccc2c1` [Z31795639], the IC50 was more than 100 µM.

With `CC(CNC(=O)CCn1cncn1)(c1ccccc1)c1ccccc1` [Z221503086], the IC50 is more than 100 µM.

Consider `Cc1nccn1CCCNC(=O)C(C)(C)c1ccccc1Cl` [Z1119105307], for which the half-inhibitory concentration (IC50) is more than 100 µM.

On to `O=C(NCCCn1ccnc1)N(Cc1ccccc1)Cc1ccccc1` [Z991981670], for which the IC50 is more than 100 µM.

Still in this data set, the particulars now being: Human immunodeficiency virus 1, read-out: Infectivity IC50, HeLa-CD4-LTR-LacZ; analogs of TT-44863 (Table 2).
Turning to `COc1ccc(C#N)cc1NC(=O)Cn1cc(C(F)(F)F)cc(Cl)c1=O` [compound 46828], the IC50 was in the range of 50 to 100 µM.

As for `COc1ccc(C(F)(F)F)cc1CNC(=O)Cn1cc(C)cc(Cl)c1=O` [compound 46957], the IC50 is more than 50 µM.

As for `CC(C)(C)OC(=O)COCCOCCOc1ccc(C(F)(F)F)cc1NC(=O)Cn1cc(C(F)(F)F)cc(Cl)c1=O` [compound 47], the IC50 lay within 50 to 100 µM.
